# US20040266718A1, “Inhibition of specific histone deacetylase isoforms” (priority 2001, published 2004)
# d = 2'-deoxy (DNA); m = 2'-O-methyl
# Tests used:
# [1] = system: cyclin B1 in Human cancer A549 cells; test: Western blot of cyclin B1 in A549 cells; type: cell-based; conditions: 48 hours, FIG. 16
# Protocol: (§1) Human cancer A549 cells were treated with AS1, AS2 or MM oligo directed human HDAC1 for 48 hours. Total cell lysates were harvested and analyzed by Western blot using antibodies against human HDAC1, cyclin B1, cyclin A and actin (all from Santa Cruz Biotechnology, Inc., Santa Cruz, Calif.). […] (FIG. 16)
# [2] = system: cyclin A in Human cancer A549 cells; test: Western blot of cyclin A in A549 cells; type: cell-based; conditions: 48 hours, FIG. 16
# Protocol: as §1
# T24 [3] = test: apoptosis, Cell Death Detection ELISA, T24; type: cell-based, human; conditions: OSDN
# Protocol: (§2) In order to determine the effect of HDAC OSDNs on cell growth and cell death through apoptosis, A549 or T24 cells, MDAmb231 cells, and HMEC cells (ATCC, Manassas, Va.) were treated with HDAC OSDNs as previously described.
# (§3) For the apoptosis study, cells were analyzed using the Cell Death Detection ELISA^Plus kit (Roche Diagnostic GmBH, Mannheim, Germany) according to the manufacturer's directions. Typically, 10,000 cells were plated in 96-well tissue culture dishes for 2 hours before harvest and lysis. Each sample was analyzed in duplicate. ELISA reading was done using a MR700 plate reader (DYNEX Technology, Ashford, Middlesex, England) at 410 nm. The reference was set at 490 nm.
# HMEC [4] = test: apoptosis, Cell Death Detection ELISA, HMEC; type: cell-based, human; conditions: OSDN, normal cells
# Protocol: as §2, §3
# human HDAC-1 RNA = test: antisense screen by Northern blot in T24 cells, HDAC-1; type: cell-based; conditions: 100 nM, 24 hours
# Protocol: (§4) Briefly, human A549 and/or T24 human bladder carcinoma cells were seeded in 10 cm tissue culture dishes one day prior to oligonucleotide treatment. The cell lines were obtained from the American Type Culture Collection (ATCC) (Manassas, Va.) and were grown under the recommended culture conditions. Before the addition of the oligonucleotides, cells were washed with PBS (phosphate buffered saline). Next, lipofectin transfection reagent (GIBCO BRL Mississauga, Ontario, Calif.), at a concentration of 6.25 μg/ml, was added to serum free OPTIMEM medium (GIBCO BRL, Rockville, Md.), which was then added to the cells. The oligonucleotides to be screened were then added directly to the cells (i.e., one oligonucleotide per plate of cells). Mismatched oligonucleotides were used as controls. The same concentration of oligonucleotide (e.g., 50 nM) was used per plate of cells for each oligonucleotide tested.
# Cells were harvested, and total RNAs were analyzed by Northern blot analysis. Briefly, total RNA was extracted using RNeasy miniprep columns (QIAGEN). Ten to twenty μg of total RNA was run on a formaldehyde-containing 1% agarose gel with 0.5 M sodium phosphate (pH 7.0) as the buffer system. RNAs were then transferred to nitrocellulose membranes and hybridized with the indicated radiolabeled DNA probes. Autoradiography was performed using conventional procedures.
# A549 [5] = test: apoptosis, Cell Death Detection ELISA, A549; type: cell-based, human; conditions: OSDN
# Protocol: as §2, §3
# human HDAC-5 RNA = test: antisense screen by Northern blot in T24 cells, HDAC-5; type: cell-based; conditions: screened as above (T24 cells, 100 nM, 24 hours)
# Protocol: Thirteen phosphorothioate ODNs containing sequences complementary to the 5′ or 3′ untranslated regions of the human HDAC-5 gene (GenBank Accession No. AF039691) were screened as above.
# as §4
# Cells were harvested, and total RNAs were analyzed by Northern blot analysis. Briefly, total RNA was extracted using RNeasy miniprep columns (QIAGEN). Ten to twenty μg of total RNA was run on a formaldehyde-containing 1% agarose gel with 0.5 M sodium phosphate (pH 7.0) as the buffer system. […]
# human HDAC-4 RNA = test: antisense screen by Northern blot in T24 cells, HDAC-4; type: cell-based; conditions: screened as above (T24 cells, 100 nM, 24 hours)
# Protocol: Seventeen phosphorothioate ODNs containing sequences complementary to the 5′ or 3′ UTR of the human HDAC-4 gene (GenBank Accession No. AB006626) were screened as above. […] HDAC-4 MM1 and MM2 oligonucleotides were created as controls; compared to the antisense oligonucleotides, they each contain a 6-base mismatch.
# as §4
# (§5) Cells were harvested, and total RNAs were analyzed by Northern blot analysis. Briefly, total RNA was extracted using RNeasy miniprep columns (QIAGEN). […]
# [6] = system: Human cancer HCT116 cells; test: cell cycle arrest by FACS; type: cell-based; conditions: HCT116, 16 hours; concentration to induce a (G2+M)/S ratio of 2.5
# Protocol: Human cancer HCT116 cells were plated at 2×10^5 per 10-cm dish and were left to attach to the dish overnight in the incubator. Cells were treated with small molecule inhibitors at various concentrations (1 uM and 10 uM, typically, dissolved in DMSO) for 16 hours. Cells were harvested by trypsinization and washed once in 1×PBS (phosphate buffered saline). The cells were resuspended in about 200 ul 1×PBS and were fixed by slowly adding 1 ml 70% ethanol at −20° C. and were left at least overnight at −20° C. Fixed cells were centrifuged at low speed (1,000 rpm) for 5 minutes, and the cell pellets were washed again with 1×PBS. Nucleic acids from fixed cells were incubated in a staining solution (0.1% (w/v) glucose in 1×PBS containing 50 ug/ml propidium iodide) (Sigma-Aldridge, Mississauga, Ontario, CA) and RNase A (final 100 units/ml, (Sigma-Aldridge, Mississauga, Ontario, CA) for at least 30 minutes in the dark at 25° C. DNA content was measured by using a fluorescence-activated cell sorter (FACS) machine. Treatment of cells with all HDAC small molecule inhibitors in Table 2 results in a significant accumulation of cancer cell in G2/M phase of the cell cycle and concomitantly reduce the accumulation of cancer cells in S phase of the cell cycle. The ratio of cells in G2/M phase vs. cells in the S. phase was determined. […]
# [7] = system: human colon cancer HCT116 cells; test: MTT assay of cell proliferation; type: cell-based; conditions: HCT-116, 72 hours
# Protocol: Two thousand (2,000) human colon cancer HCT116 cells (ATCC, Manassas, Va. were used in an MTT (3-[4,5-dimethylthiazol-2-yl]-2,5 diphenyl tetrazolium bromide) assay to quantitatively determine cell proliferation and cytotoxicity. Typically, HCT116 cells were plated into each well of the 96-well tissue culture plate and left overnight to attach to the plate. Compounds at various concentrations were added into the culture media (final DMSO concentration 1%) and incubated for 72 hours. MTT solution (obtained from Sigma as powder) was added and incubated with the cells for 4 hours at 37° C. in incubator with 5% CO2. During the incubation, viable cells convert MTT to a water-insoluble formazan dye. Solubilizing buffer (50% N,N-dimethylformamide, 20% SDS, pH 4.7) was added to cells and incubated for overnight at 37C in incubator with 5% CO2. Solubilized dye was quantitated by calorimetric reading at […] using a reference of […]. Optical density values were converted to cell number values by comparison to a standard growth curve for each cell line.
# HMEC [8] = test: cell growth analysis (trypan blue cell count), HMEC; type: cell-based, human; conditions: 50 nM, 72 hours, normal cells
# Protocol: as §4, §2
# (§6) Cells were harvested and cell numbers counted by trypan blue exclusion using a hemocytometer. Percentage of inhibition was calculated as (100—AS cell numbers/control cell numbers)%.
# A549 [9] = test: cell growth analysis (trypan blue cell count), A549; type: cell-based, human; conditions: 50 nM, 72 hours
# Protocol: as §4, §2, §6
# human HDAC-6 RNA = test: antisense screen by Northern blot in T24 cells, HDAC-6; type: cell-based; conditions: screened as above (T24 cells, 100 nM, 24 hours)
# Protocol: Thirteen phosphorothioate ODNs containing sequences complementary to the 5′ or 3′ untranslated regions of the human HDAC-6 gene (GenBank Accession No. AJ011972) were screened as above. […] HDAC-6 MM oligo was created as a control; compared to the antisense oligo, it contains a 7-base mismatch.
# as §4, §5
# T24 [10] = test: cell growth analysis (trypan blue cell count), T24; type: cell-based, human; conditions: 50 nM, 72 hours
# Protocol: as §4, §2, §6
# MDAmb231 [11] = test: apoptosis, Cell Death Detection ELISA, MDAmb231; type: cell-based, human; conditions: OSDN
# Protocol: as §2, §3
# human cancer cells = test: cell growth and apoptosis of human cancer cells; type: cell-based; conditions: for growth arrest and apoptosis of human cancer cells: text summary of FIGS. 11-13, Tables 4 and 5
# Protocol: as §2, §3, §6
# MDAmb231 [12] = test: cell growth analysis (trypan blue cell count), MDAmb231; type: cell-based, human; conditions: 50 nM, 72 hours
# Protocol: as §4, §2, §6
# human HDAC-2 RNA = test: antisense screen by Northern blot in T24 cells, HDAC-2; type: cell-based; conditions: screened as above (T24 cells, 100 nM, 24 hours)
# Protocol: Twenty-four phosphorothioate ODNs containing sequences complementary to the 5′ or 3′ UTR of the human HDAC-2 gene (GenBank Accession No. U31814) were screened as above. […] HDAC-2 MM was created as a control; compared to the antisense oligo, it contains a 7-base mismatch.
# as §4, §5
# human HDAC-3 RNA = test: antisense screen by Northern blot in T24 cells, HDAC-3; type: cell-based; conditions: screened as above (T24 cells, 100 nM, 24 hours)
# Protocol: Twenty-one phosphorothioate ODNs containing sequences complementary to the 5′ or 3′ UTR of the human HDAC-3 gene (GenBank Accession No. AF039703) were screened as above. […] HDAC-3 MM oligonucleotide was created as a control; compared to the antisense oligonucleotide, it contains a 6-base mismatch.
# as §4, §5
molecule,measurement,setting,value
"HDAC-1 AS1: antisense oligonucleotide to human HDAC1, 5′-GAAACGTGAGGGACTCAGCA-3′ (SEQ ID NO:17) (chemistry not given here)",expression of cyclin B1,[1],repress expression
same,expression of cyclin A,[2],repress expression
same,Apoptosis After 48 Hour Treatment T24,T24 [3],− (< = 2x fold over non-specific background)
same,Apoptosis After 48 Hour Treatment HMEC,HMEC [4],− (< = 2x fold over non-specific background)
same,"antisense activity to human HDAC-1 (RNA expression, Northern blot)",human HDAC-1 RNA,antisense activity
same,Apoptosis After 48 Hour Treatment A549,A549 [5],+ (2-3X fold)
"HDAC-5 AS: antisense oligonucleotide to human HDAC5, 5′-CTTCGGTCTCACCTGCTTGG-3′ (SEQ ID NO:28) (sugars from the 5' end m4 d12 m4, all phosphorothioate, methylation of C and T or U not given here)","antisense activity to human HDAC-5 (RNA expression, Northern blot)",human HDAC-5 RNA,antisense activity
"HDAC-1 AS2: antisense oligonucleotide to human HDAC1, 5′-GGAAGCCAGAGCTGGAGAGG-3′ (SEQ ID NO:18) (chemistry not given here)",expression of cyclin B1,[1],repress expression
same,expression of cyclin A,[2],repress expression
same,"antisense activity to human HDAC-1 (RNA expression, Northern blot)",human HDAC-1 RNA,antisense activity
"HDAC-4 AS2: antisense oligonucleotide to human HDAC4, 5′-TACAGTCCATGCAACCTCCA-3′ (SEQ ID NO:26) (sugars from the 5' end m4 d12 m4, all phosphorothioate, methylation of C and T or U not given here)","antisense activity to human HDAC-4 (RNA expression, Northern blot)",human HDAC-4 RNA,antisense activity
CC(/C=C/C(=O)Nc1ccccc1N)=C\C(C)C(=O)c1ccc(N(C)C)cc1 (stereo not drawn) [Compound 1],Cell Cycle Arrest EC,[6],2 µM
same,EC50,[7],3000 nM
"HDAC-6 AS: antisense oligonucleotide to human HDAC6, 5′-CAGGCTGGAATGAGCTACAG-3′ (SEQ ID NO:29) (chemistry not given here)",Growth Inhibition (AS vs. MM) HMEC,HMEC [8],− (no inhibition)
same,Apoptosis After 48 Hour Treatment T24,T24 [3],− (< = 2x fold over non-specific background)
same,Growth Inhibition (AS vs. MM) A549,A549 [9],− (no inhibition)
same,"antisense activity to human HDAC-6 (RNA expression, Northern blot)",human HDAC-6 RNA,antisense activity
same,Growth Inhibition (AS vs. MM) T24,T24 [10],− (no inhibition)
same,Apoptosis After 48 Hour Treatment HMEC,HMEC [4],− (< = 2x fold over non-specific background)
same,Apoptosis After 48 Hour Treatment A549,A549 [5],− (< = 2x fold over non-specific background)
same,Apoptosis After 48 Hour Treatment MDAmb231,MDAmb231 [11],− (< = 2x fold over non-specific background)
same,growth arrest and apoptosis of human cancer cells,human cancer cells,no effect
"HDAC-2 AS: antisense oligonucleotide to human HDAC2, 5′-GCTGAGCTGTTCTGATTTGG-3′ (SEQ ID NO:20) (chemistry not given here)",Growth Inhibition (AS vs. MM) MDAmb231,MDAmb231 [12],− (no inhibition)
same,"antisense activity to human HDAC-2 (RNA expression, Northern blot)",human HDAC-2 RNA,antisense activity
same,Apoptosis After 48 Hour Treatment T24,T24 [3],− (< = 2x fold over non-specific background)
same,Apoptosis After 48 Hour Treatment HMEC,HMEC [4],− (< = 2x fold over non-specific background)
same,Apoptosis After 48 Hour Treatment A549,A549 [5],− (< = 2x fold over non-specific background)
same,Apoptosis After 48 Hour Treatment MDAmb231,MDAmb231 [11],− (< = 2x fold over non-specific background)
same,cancer cell growth inhibition,human cancer cells,minimal effect
"HDAC-3 AS: antisense oligonucleotide to human HDAC3, 5′-CGCTTTCCTTGTCATTGACA-3′ (SEQ ID NO:22) (chemistry not given here)",Growth Inhibition (AS vs. MM) MDAmb231,MDAmb231 [12],− (no inhibition)
same,Growth Inhibition (AS vs. MM) HMEC,HMEC [8],− (no inhibition)
same,Apoptosis After 48 Hour Treatment T24,T24 [3],− (< = 2x fold over non-specific background)
same,Growth Inhibition (AS vs. MM) A549,A549 [9],− (no inhibition)
same,Growth Inhibition (AS vs. MM) T24,T24 [10],− (no inhibition)
same,Apoptosis After 48 Hour Treatment HMEC,HMEC [4],− (< = 2x fold over non-specific background)
same,"antisense activity to human HDAC-3 (RNA expression, Northern blot)",human HDAC-3 RNA,antisense activity
same,Apoptosis After 48 Hour Treatment A549,A549 [5],− (< = 2x fold over non-specific background)
same,Apoptosis After 48 Hour Treatment MDAmb231,MDAmb231 [11],− (< = 2x fold over non-specific background)
same,growth arrest and apoptosis of human cancer cells,human cancer cells,no effect
